The test system of assay [1] is foetal mouse tibial organ culture. The note with it: ex vivo foetal mouse tibia; cited from earlier work.
Another assay relates to ATDC5 cells. Description: cGMP production in ATDC5 cells. It is filed as cell-based, mouse. The settings on record: varying concentrations of CNP, 15 min. An excerpt: To gain further insight into the cellular basis of the interaction between CNP and Ostn in endochondral bone formation, ATDC5 cells were used. These cells are a mouse chondrogenic cell line derived from embryogenic carcinoma cells (Shukunami et al., 1996). […] In another study, NPR-C was also found to be expressed in these cells and the amount of transcripts decreased in association with the chondrogenic differentiation (Fujishige et al., 1999). Therefore, ATDC5 cells are considered to be a good model to study the interaction between CNP and Ostn in vitro.
Cold and radio iodinated human Ostn[83-133] (SEQ ID NO: 41) were purchased from Phoenix Pharmaceutical co. (CA, USA). CNP was obtained from Sigma (St. Louis, USA) and rat C-ANF was purchased from Bachem (CA, USA). Cyclic GMP direct Biotrak™ EIA kit was obtained from Amersham Biosciences (Quebec, Canada) and DMEM/F-12 and PBS were obtained from Wisent (Quebec, Canada). Protease inhibitors were purchased from Roche (Quebec, Canada)
Cells, grown in 24-well plates to 90% confluence, were washed twice with PBS and incubated in DMEM/F12 containing 1 mM IBMX, a protease inhibitor cocktail (40 ul/ml of medium), 0.1% BSA with or without C-ANF (0.1 μM) or Ostn[83-133] (0.1 μM) for 10 min at 37° C. prior to the addition of varying concentrations of CNP. They were then incubated for 15 min. After incubation, cells were washed twice with PBS and scraped in ice-cold ethanol (65%). The supernatant, obtained by centrifuging at 2000×g for 15 min at 4° C., was evaporated to dryness via speed vac. The amount of cGMP was measured with cGMP direct Biotrak™ EIA kit.

Assay [2] concerns the target T1, human GC-B (Homo sapiens, UniProt P20594).
T1 construct: expressed in transfected cells; host or cells: HEK293, transient, pCDNA1.1 (CMV promoter)
T1 sequence (P20594 23-1047): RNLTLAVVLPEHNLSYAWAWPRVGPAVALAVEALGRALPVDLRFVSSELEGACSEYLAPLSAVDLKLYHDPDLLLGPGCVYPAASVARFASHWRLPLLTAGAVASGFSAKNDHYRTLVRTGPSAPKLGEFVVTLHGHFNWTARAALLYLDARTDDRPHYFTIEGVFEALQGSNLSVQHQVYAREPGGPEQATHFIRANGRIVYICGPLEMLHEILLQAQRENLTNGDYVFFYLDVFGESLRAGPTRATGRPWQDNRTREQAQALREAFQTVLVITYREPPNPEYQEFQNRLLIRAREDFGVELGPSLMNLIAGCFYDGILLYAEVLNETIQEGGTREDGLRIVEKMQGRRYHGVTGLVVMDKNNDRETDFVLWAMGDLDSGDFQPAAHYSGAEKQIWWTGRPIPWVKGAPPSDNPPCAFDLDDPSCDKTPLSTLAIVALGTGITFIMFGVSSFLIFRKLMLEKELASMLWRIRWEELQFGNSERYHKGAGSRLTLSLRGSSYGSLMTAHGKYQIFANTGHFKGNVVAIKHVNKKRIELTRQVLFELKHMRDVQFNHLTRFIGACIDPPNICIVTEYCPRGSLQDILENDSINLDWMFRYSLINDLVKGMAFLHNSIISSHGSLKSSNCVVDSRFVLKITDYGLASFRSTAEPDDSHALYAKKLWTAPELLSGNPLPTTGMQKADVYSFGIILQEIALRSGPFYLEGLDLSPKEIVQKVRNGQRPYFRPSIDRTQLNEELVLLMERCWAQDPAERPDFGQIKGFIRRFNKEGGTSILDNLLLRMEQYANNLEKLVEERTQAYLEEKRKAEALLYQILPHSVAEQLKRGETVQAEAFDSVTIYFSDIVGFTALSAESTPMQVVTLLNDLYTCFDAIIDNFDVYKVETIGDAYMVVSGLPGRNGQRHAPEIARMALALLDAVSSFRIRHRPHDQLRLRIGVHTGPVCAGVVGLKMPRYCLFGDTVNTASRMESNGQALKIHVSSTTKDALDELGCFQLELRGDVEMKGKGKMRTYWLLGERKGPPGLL
Nature of the assay: Intracellular cGMP in GC-B transfected HEK293 cells. It is filed as cell-based. The note with it: 10 nM peptide, 15 min.

Assay [3] has as its system primary rat osteoblastic cultures. The settings on record: cited from earlier work.
The target of a further assay is T2, NPR-C (Homo sapiens, UniProt P17342).
T2 construct: expressed in transfected cells; host or cells: HEK293, transient, pCDNA1.1 (CMV promoter)
T2 sequence (P17342 27-541): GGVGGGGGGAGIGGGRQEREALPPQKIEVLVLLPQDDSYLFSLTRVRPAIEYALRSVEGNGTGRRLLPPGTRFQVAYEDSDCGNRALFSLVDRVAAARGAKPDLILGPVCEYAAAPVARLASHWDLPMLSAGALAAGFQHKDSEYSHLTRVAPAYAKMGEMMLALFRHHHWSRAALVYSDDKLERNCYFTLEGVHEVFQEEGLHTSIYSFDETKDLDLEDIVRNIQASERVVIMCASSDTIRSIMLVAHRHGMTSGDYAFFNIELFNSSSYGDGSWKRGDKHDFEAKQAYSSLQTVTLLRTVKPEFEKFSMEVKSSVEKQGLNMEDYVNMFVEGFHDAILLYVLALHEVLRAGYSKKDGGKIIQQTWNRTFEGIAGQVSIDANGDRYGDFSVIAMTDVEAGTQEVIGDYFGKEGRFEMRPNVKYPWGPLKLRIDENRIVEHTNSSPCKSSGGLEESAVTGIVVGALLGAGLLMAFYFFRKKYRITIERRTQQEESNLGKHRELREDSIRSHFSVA
Description: Competition of PLAP-Ostn binding on NPR-C over-expressing cells. The note with it: ~30 nM PLAP-Ostn, NPR-C transfected cells; read-out: concentration competing off 50% of the binding of PLAP-mOstn. The source says:
(§1) The expression plasmid for rat GC-A containing the entire coding sequence cloned between the NheI-KpnI sites of CMV-driven pBK plasmid (Stratagene, La Jolla, Calif.) was kindly provided by Dr. A. De Léan (Département de Pharmacologie, Université de Montréal). The human NPR-C and GC-B coding sequences were amplified by RT-PCR from human embryonic kidney polyA RNA (Clontech, Palo Alto, Calif.) with the following primer pairs: NPR-C-5′-[…]-3′(forward) (SEQ ID NO: 74) and 5′-[…]-3′ (SEQ ID NO: 75) (reverse); GC-B-5′-[…]-3′ (SEQ ID NO: 76) (forward) and 5′-[…]-3′ (SEQ ID NO: 77) (reverse). The resulting PCR products were then cloned downstream of the CMV-promoter into the pCDNA1.1 plasmid (Invitrogen, Burlington, ON, Canada). All constructs were validated by DNA sequencing.

Another assay concerns the target T3, rat GC-A (Rattus norvegicus, UniProt P18910).
T3 construct: expressed in transfected cells; host or cells: HEK293, transient, CMV-driven pBK plasmid (gift of Dr. A. De Léan)
T3 sequence (P18910 29-1057): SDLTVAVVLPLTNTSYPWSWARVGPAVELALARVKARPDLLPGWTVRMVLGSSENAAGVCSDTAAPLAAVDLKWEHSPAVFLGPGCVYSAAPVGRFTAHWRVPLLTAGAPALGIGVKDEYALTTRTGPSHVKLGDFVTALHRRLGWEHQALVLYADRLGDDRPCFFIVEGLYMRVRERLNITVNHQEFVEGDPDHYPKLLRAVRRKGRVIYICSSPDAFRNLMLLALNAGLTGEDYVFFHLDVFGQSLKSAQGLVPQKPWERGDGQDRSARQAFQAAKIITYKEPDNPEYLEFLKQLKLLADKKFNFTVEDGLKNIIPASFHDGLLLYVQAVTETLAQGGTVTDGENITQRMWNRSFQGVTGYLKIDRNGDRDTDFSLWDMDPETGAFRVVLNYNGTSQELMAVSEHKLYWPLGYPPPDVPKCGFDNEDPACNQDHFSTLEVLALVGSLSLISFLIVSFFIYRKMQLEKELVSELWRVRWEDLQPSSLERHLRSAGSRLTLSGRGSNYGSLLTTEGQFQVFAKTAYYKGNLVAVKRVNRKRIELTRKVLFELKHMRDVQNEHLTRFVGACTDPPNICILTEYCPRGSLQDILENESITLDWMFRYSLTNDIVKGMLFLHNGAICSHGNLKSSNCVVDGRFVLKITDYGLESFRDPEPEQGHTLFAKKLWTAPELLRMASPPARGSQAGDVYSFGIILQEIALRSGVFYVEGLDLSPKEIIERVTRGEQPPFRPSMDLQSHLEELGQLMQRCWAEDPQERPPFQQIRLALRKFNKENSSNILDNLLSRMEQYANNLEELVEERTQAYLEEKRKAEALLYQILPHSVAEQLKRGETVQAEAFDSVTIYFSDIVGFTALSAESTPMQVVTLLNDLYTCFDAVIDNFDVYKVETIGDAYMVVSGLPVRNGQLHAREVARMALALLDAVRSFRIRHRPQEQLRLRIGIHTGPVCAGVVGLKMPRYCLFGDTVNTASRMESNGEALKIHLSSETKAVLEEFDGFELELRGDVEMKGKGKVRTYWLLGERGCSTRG
Nature of the assay: PLAP-Ostn binding to GC-A transfected HEK293 cells. The settings on record: cells overexpressing GC-A (not shown).
Excerpt: as §1
(§2) To analyze the potential binding of Ostn to natriuretic receptors, a fusion protein (PLAP-Ostn) (FIG. 6) was generated as described above. This fusion protein comprised an N-terminal secreted placental alkaline phosphatase (PLAP) moiety linked to mature mouse Ostn (residues 29-130) (SEQ ID NO: 62). Conditioned media containing PLAP-mOstn was used to assess Ostn binding on transiently transfected cells.
(§3) Expression vectors for the coding sequence of GC-A, GC-B and NPR-C were constructed, transfected into human embryonic kidney (HEK) 293 cells and the cells incubated with either 37 nM PLAP or the PLAP-Ostn fusion. […]

Assay [4] deals with T1, human GC-B. Nature of the assay: PLAP-Ostn binding to GC-B transfected HEK293 cells. The note with it: cells overexpressing GC-B.
Excerpt: as §1, §2, §3

No end group written: not given here.

As to “CNP: natriuretic peptide CNP (1-22) from Sigma; GC-B selective agonist”, the “effect on bone length” value in assay [1] was “significant increases in bone length”. Further, in the assay with ATDC5 cells, the cGMP production result is “concentration-dependent cGMP production”. For the same molecule, the “intracellular cGMP response via GC-B” value in the assay with human GC-B [2] is “greatest responses”. In assay [3], the “effect on osteoblast differentiation” value was “stimulated osteoblast differentiation” and the effect on proliferation entry is listed as “inhibited proliferation”.

“YDHSKKRFGIPMDRIGRNRLSNSR-NH2 [Ostn[107-129]]”: the IC50 on NPR-C was in the range of 1 to 10 nM.

B1: PLAP-mOstn: fusion protein: N-terminal secreted placental alkaline phosphatase moiety linked to mature mouse Ostn residues 29-130 (SEQ ID NO: 70) (protein)
chain: DAAQPARRARRTYEAYVRSSGIIPVEEENPDFWNREAAEALGAAKKLQPAQTAAKNLIIFLGDGMGVSTVTAARILKGQKKDKLGPEIPLAMDRFPYVALSKTYNVDKHVPDSGATATAYLCGVKGNFQTIGLSAAARFNQCNTTRGNEVISVMNRAKKAGKSVGVVTTTRVQHASPAGTYAHTVNRNWYSDADVPASARQEGCQDIATQLISNMDIDVILGGGRKYMFPMGTPDPEYPDDYSQGGTRLDGKNLVQEWLAKRQGARYVWNRTELMQASLDPSVTHLMGLFEPGDMKYEIHRDSTLDPSLMEMTEAALRLLSRNPRGFFLFVEGGRIDHGHHESRAYRALTETIMFDDAIERAGQLTSEEDTLSLVTADHSHVFSFGGYPLRGSSIFGLAPGKARDRKAYTVLLYGNGPGYVLKDGARPDVTESESGSPEYRQQSAVPLDEETHAGEDVAVFARGPQAHLVHGVQEQTFIAHVMAFAACLEPYTACDLAPPAGTTDAAHPGYLDLASQEFGTASLQSPPTAREEKSATELSAKLLRLDDLVSLENDVFETKKKRSFSGFGSPLDRLSAGSVEHRGKQRKAVDHSKKRFGIPMDRIGRNRLSSSRG
Consider B1, for which the specific binding entry with rat GC-A and with human GC-B [4] was “No specific binding” in each case.

The values above are taken from US7470668B2, “Method of use of specific natriuretic peptide receptor c ligands, transgenic non-human mammals expressing specific natriuretic peptide receptor c antagonists and cells thereof” (Enobia Pharma Inc., priority 2005, dated 2008).
